Assay results reported in the supplement of paper PMC10307832.

How the values were obtained:
Assay in all cases: relative viability (nuclei count vs DMSO), 5 days (fraction); higher = more cells survive
PC-14 = tested on: PC-14
Summary of the method: (§1)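 Values are medians from duplicate plates. Each reflects relative viability, defined as the nuclei count of treated wells over that of vehicle wells. Lung cancer cell lines in 1536-well plates were pin-tool dosed one day after seeding with one drug alone or with a fixed anchor-drug dose plus five library-drug doses (not always all listed) in √10 steps, then fixed, stained and imaged at 4× after 5 days.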

LOU-NH91 = tested on: LOU-NH91
Summary of the method: as §1

NCI-H1666 = tested on: NCI-H1666
Summary of the method: as §1

NCI-H2009 = tested on: NCI-H2009
Summary of the method: as §1

LK-2 = tested on: LK-2
Summary of the method: as §1

HCC-366 = tested on: HCC-366
Summary of the method: as §1

CAL-12T = tested on: CAL-12T
Summary of the method: as §1

NCI-H3122 = tested on: NCI-H3122
Summary of the method: as §1

NCI-H727 = tested on: NCI-H727
Summary of the method: as §1

COR-L 105 = tested on: COR-L 105
Summary of the method: as §1

EKVX = tested on: EKVX
Summary of the method: as §1

NCI-H441 = tested on: NCI-H441
Summary of the method: as §1

NCI-H1437 = tested on: NCI-H1437
Summary of the method: as §1

NCI-H661 = tested on: NCI-H661
Summary of the method: as §1

HARA = tested on: HARA
Summary of the method: as §1

ABC-1 = tested on: ABC-1
Summary of the method: as §1

NCI-H460 = tested on: NCI-H460
Summary of the method: as §1

201T = tested on: 201T
Summary of the method: as §1

BEN = tested on: BEN
Summary of the method: as §1

SMILES: Nc1ccn([C@@H]2O[C@H](CO)[C@@H](O)[C@@H]2O)c(=O)n1 [Cytarabine] + C[C@]1(O)C[C@@H](c2nc(-c3ccc4ccc(-c5ccccc5)nc4c3)c3c(N)nccn32)C1 [Linsitinib] (partner 1 µM)
- relative viability (PC-14; first compound 0.005 µM): 0.967
- relative viability (PC-14; first compound 0.01581 µM): 0.862
- relative viability (PC-14; first compound 0.05 µM): 0.761
- relative viability (PC-14; first compound 0.1581 µM): 0.436
- relative viability (PC-14; first compound 0.5 µM): 0.464
- relative viability (LOU-NH91; first compound 0.005 µM): 0.996
- relative viability (LOU-NH91; first compound 0.01581 µM): 0.904
- relative viability (LOU-NH91; first compound 0.05 µM): 0.82
- relative viability (LOU-NH91; first compound 0.1581 µM): 0.54
- relative viability (LOU-NH91; first compound 0.5 µM): 0.566
- relative viability (NCI-H1666; first compound 0.005 µM): 0.774
- relative viability (NCI-H1666; first compound 0.01581 µM): 0.876
- relative viability (NCI-H1666; first compound 0.05 µM): 0.703
- relative viability (NCI-H1666; first compound 0.1581 µM): 0.344
- relative viability (NCI-H1666; first compound 0.5 µM): 0.305
- relative viability (NCI-H2009; first compound 0.005 µM): 1.11
- relative viability (NCI-H2009; first compound 0.01581 µM): 1.12
- relative viability (NCI-H2009; first compound 0.05 µM): 1.19
- relative viability (NCI-H2009; first compound 0.1581 µM): 0.83
- relative viability (NCI-H2009; first compound 0.5 µM): 0.411
- relative viability (LK-2; first compound 0.005 µM): 0.494
- relative viability (LK-2; first compound 0.01581 µM): 0.58
- relative viability (LK-2; first compound 0.05 µM): 0.247
- relative viability (LK-2; first compound 0.1581 µM): 0.215
- relative viability (LK-2; first compound 0.5 µM): 0.162
- relative viability (HCC-366; first compound 0.005 µM): 0.725
- relative viability (HCC-366; first compound 0.01581 µM): 0.393
- relative viability (HCC-366; first compound 0.05 µM): 0.178
- relative viability (HCC-366; first compound 0.1581 µM): 0.0468
- relative viability (HCC-366; first compound 0.5 µM): 0.0253
- relative viability (CAL-12T; first compound 0.005 µM): 0.72
- relative viability (CAL-12T; first compound 0.01581 µM): 0.878
- relative viability (CAL-12T; first compound 0.05 µM): 0.747
- relative viability (CAL-12T; first compound 0.1581 µM): 0.39
- relative viability (CAL-12T; first compound 0.5 µM): 0.203
- relative viability (NCI-H3122; first compound 0.005 µM): 0.995
- relative viability (NCI-H3122; first compound 0.01581 µM): 0.893
- relative viability (NCI-H3122; first compound 0.05 µM): 0.948
- relative viability (NCI-H3122; first compound 0.1581 µM): 0.72
- relative viability (NCI-H3122; first compound 0.5 µM): 0.476
- relative viability (NCI-H727; first compound 0.005 µM): 0.251
- relative viability (NCI-H727; first compound 0.01581 µM): 0.254
- relative viability (NCI-H727; first compound 0.05 µM): 0.318
- relative viability (NCI-H727; first compound 0.1581 µM): 0.19
- relative viability (NCI-H727; first compound 0.5 µM): 0.215
- relative viability (COR-L 105; first compound 0.005 µM): 0.815
- relative viability (COR-L 105; first compound 0.01581 µM): 1.1
- relative viability (COR-L 105; first compound 0.05 µM): 0.628
- relative viability (COR-L 105; first compound 0.1581 µM): 0.443
- relative viability (COR-L 105; first compound 0.5 µM): 0.359
- relative viability (EKVX; first compound 0.005 µM): 0.731
- relative viability (EKVX; first compound 0.01581 µM): 0.853
- relative viability (EKVX; first compound 0.05 µM): 0.945
- relative viability (EKVX; first compound 0.1581 µM): 0.585
- relative viability (EKVX; first compound 0.5 µM): 0.242
- relative viability (NCI-H441; first compound 0.005 µM): 0.467
- relative viability (NCI-H441; first compound 0.01581 µM): 0.476
- relative viability (NCI-H441; first compound 0.05 µM): 0.406
- relative viability (NCI-H441; first compound 0.1581 µM): 0.232
- relative viability (NCI-H441; first compound 0.5 µM): 0.122
- relative viability (NCI-H1437; first compound 0.005 µM): 0.746
- relative viability (NCI-H1437; first compound 0.01581 µM): 0.678
- relative viability (NCI-H1437; first compound 0.05 µM): 0.477
- relative viability (NCI-H1437; first compound 0.1581 µM): 0.19
- relative viability (NCI-H1437; first compound 0.5 µM): 0.147
- relative viability (NCI-H661; first compound 0.005 µM): 0.624
- relative viability (NCI-H661; first compound 0.01581 µM): 0.529
- relative viability (NCI-H661; first compound 0.05 µM): 0.445
- relative viability (NCI-H661; first compound 0.1581 µM): 0.286
- relative viability (NCI-H661; first compound 0.5 µM): 0.21
- relative viability (HARA; first compound 0.005 µM): 0.851
- relative viability (HARA; first compound 0.01581 µM): 0.608
- relative viability (HARA; first compound 0.05 µM): 0.396
- relative viability (HARA; first compound 0.1581 µM): 0.174
- relative viability (HARA; first compound 0.5 µM): 0.0936
- relative viability (ABC-1; first compound 0.005 µM): 0.699
- relative viability (ABC-1; first compound 0.01581 µM): 0.99
- relative viability (ABC-1; first compound 0.05 µM): 0.909
- relative viability (ABC-1; first compound 0.1581 µM): 0.71
- relative viability (ABC-1; first compound 0.5 µM): 0.487
- relative viability (NCI-H460; first compound 0.005 µM): 0.509
- relative viability (NCI-H460; first compound 0.01581 µM): 0.514
- relative viability (NCI-H460; first compound 0.05 µM): 0.231
- relative viability (NCI-H460; first compound 0.1581 µM): 0.0385
- relative viability (NCI-H460; first compound 0.5 µM): 0.0239
- relative viability (201T; first compound 0.005 µM): 1.1
- relative viability (201T; first compound 0.01581 µM): 1.02
- relative viability (201T; first compound 0.05 µM): 1.03
- relative viability (201T; first compound 0.1581 µM): 0.9
- relative viability (201T; first compound 0.5 µM): 0.886
- relative viability (BEN; first compound 0.005 µM): 0.616
- relative viability (BEN; first compound 0.01581 µM): 0.775
- relative viability (BEN; first compound 0.05 µM): 0.557
- relative viability (BEN; first compound 0.1581 µM): 0.423
- relative viability (BEN; first compound 0.5 µM): 0.307
